Reference: patent US12055549B2, “Methods of use of anti-TNFα antibodies” (UCB Biopharma SRL, priority 2015, dated 2024)

Target: TNFα (Homo sapiens, UniProt P01375)
Test: SPR on Biacore 4000, immobilised soluble TNFα
Format: binding
Details: concentration of up to 100 μM
Procedure: In another experiment, BIO8898 was tested against the immobilised soluble form of CD40L and the soluble form of TNFα by SPR on a Biacore 4000 machine.

Sequence of TNFα (P01375 77-233 limits assumed): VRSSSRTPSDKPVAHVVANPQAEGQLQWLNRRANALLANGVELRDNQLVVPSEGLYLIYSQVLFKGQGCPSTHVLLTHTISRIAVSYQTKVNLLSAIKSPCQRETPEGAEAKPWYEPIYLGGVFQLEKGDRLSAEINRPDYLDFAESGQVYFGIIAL

- binding to TNFα: found not to bind to TNFα
SMILES: O=C(NCc1cccc(-c2ccccc2)c1)c1cc(-c2cc(C(=O)NC(C(=O)O)C3CCCCC3)nc(C(=O)N3CCCC3CN3CCCC3)c2)cc(C(=O)N2CCCC2CN2CCCC2)n1 (stereo not shown) [BIO8898]
